The subject of one assay is P. aeruginosa (1051575). The experiment in a line: Potentiation of chloramphenicol activity (combination MIC). It is filed as cell-based, Pseudomonas aeruginosa. To be noted: concentration of compound required to restore antibiotic activity. The method, then: This method requires the use of a 96-well plate: 100 μL of a liquid culture medium are placed in each well and then seeded with the microbial suspension prepared previously. The required volume to be seeded is calculated for an OD of 0.01, which corresponds to about 5×10^6 bacteria in each well. In this plate, the first line corresponds to a negative control (200 μL of sterile culture medium in each well), the second line corresponds to a positive control (100 μL of sterile culture medium+100 μL of the bacterial suspension), and the third line contains 192 μL of culture medium; 8 μL of compound of formula (I) to be tested are placed in each well. Thereafter, a cascade dilution is performed from this line. […] 92 μL of bacterial suspension are then added to lines 3 to 8. The results are read (the determination of the MIC (2 μg/mL of doxycycline) in the presence of X g/mL of compound of formula (I)) after 24 hours of incubation at 37° C. under a humid atmosphere. After 24 hours of incubation at 37° C., 40 μL of nitro tetrazolium iodide are added to each well to reveal the presence of live bacteria by staining the medium pink.
The procedure is identical to that indicated in Example 5 above. […]
The results are given in table V. They indicate the concentration of compound of formula (I) required to be able to restore the activity of the antibiotic under consideration.

The next assay has as its system E. coli Animal (1956). The experiment in a line: MIC determination, E. coli animal (1956). It is filed as cell-based. To be noted: Escherichia coli; Gram-negative; Mueller-Hinton medium, 24 h at 37° C. The method, boiled down: (§1)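 Broth microdilution in Mueller-Hinton medium, inoculum at OD 0.01, compounds (5 mg/mL stock in DMSO/methanol 50/50) serially diluted twofold. Plates incubated 24 h at 37° C. under humid atmosphere, read at OD 620 nm for MIC; duplicates.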

The test system of a further assay is E. coli Human ATCC 28922. Put plainly: MIC determination, E. coli human ATCC 28922. It is filed as cell-based. To be noted: Escherichia coli, ATCC28922; Gram-negative; Mueller-Hinton medium, 24 h at 37° C. In a few lines:
as §1

The subject of assay [1] is S. intermedius Animal (1051997). The experiment in a line: MIC determination, S. intermedius animal (1051997). Conditions: Staphylococcus intermedius; Gram-positive; Mueller-Hinton medium, 24 h at 37° C. The assay is classed as cell-based. In a few lines:
as §1

Assay [2] relates to E. faecalis Human ATCC 29212. The experiment in a line: MIC determination, E. faecalis human ATCC 29212. It is filed as cell-based. Conditions: Enterococcus faecalis, ATCC29212; Gram-positive; Mueller-Hinton medium, 24 h at 37° C. The method, boiled down: as §1
A further assay concerns CHO-K1 cells. The experiment in a line: WST1 cytotoxicity test on CHO-K1 cells. It is filed as cell-based, Chinese hamster. Conditions: Cricetulus griseus. In a few lines:
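CHO-K1 cells pre-grown 24 h, then exposed to increasing compound concentrations in duplicate for 24 h at 37° C, 5% CO2. Viability read after 20 min with 10% WST-1 in PBS at 450 nm; IC50 from nonlinear regression as concentration cutting viability 50%.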
In general terms: Formazan colour is commonly taken as a measure of viable cells.

In assay [3] the test system is P. aeruginosa Human ATCC 27853. The experiment in a line: MIC determination, P. aeruginosa human ATCC 27853. The assay is classed as cell-based. To be noted: Pseudomonas aeruginosa, ATCC27853; Gram-negative; Mueller-Hinton medium, 24 h at 37° C. In a few lines:
as §1

Setting [4] is: CHO-K1, 24 h, read-out: IC50 (μg/mL) CHO.
The mark [5] stands for this setting: CHO-K1, read-out: IC50 (μg/mL) CHO.

≈ marks a conversion by molar mass, not a printed value. Read-outs that look alike come from different tables or passages of the source.

By MIC is commonly meant the smallest concentration in the dilution series that meets the test's criterion for growth inhibition. A higher MIC goes with a less susceptible organism.

As to `CC(C)NC(=O)CC[C@@H](C)[C@H]1CCC2C3CCC4C[C@@H](NCCCN(C)CCCN)CC[C@]4(C)C3C[C@H](O)[C@@]21C` (some centres unmarked) [(25)], the “MIC P. aeruginosa (1051575) compound + chloramphenicol” value (“MIC P. aeruginosa” below) in the assay on P. aeruginosa (1051575) (chloramphenicol 4 μg/mL) came to 2 µg/mL. The MIC stood at 14 µg/mL (≈ 25 µM) with E. coli Animal (1956); 14 µg/mL (≈ 25 µM) against E. coli Human ATCC 28922; 2 µg/mL (≈ 3.57 µM) in assay [1]; 14 µg/mL (≈ 25 µM) in assay [2]; 28 µg/mL (≈ 49.9 µM) in assay [3]. In addition, the IC50 with CHO-K1 cells (setting [4]) worked out at 48 µg/mL (≈ 85.6 µM).

Take `CC(C)NC(=O)CC[C@@H](C)[C@H]1CCC2C3C(C[C@H](O)[C@@]21C)[C@@]1(C)CC[C@H](NCCCNCCCN)CC1C[C@H]3O` (stereo partly drawn) [(5), 3β-norspermidino-N-isopropylcholamide]: the figures for the “MIC P. aeruginosa” value in the assay with P. aeruginosa (1051575) (chloramphenicol 2 μg/mL) and in the assay on P. aeruginosa (1051575) (chloramphenicol 4 μg/mL) were 4 µg/mL and 2 µg/mL, respectively. The MIC with E. coli Animal (1956) was found to be 32 µg/mL (≈ 56.9 µM); against E. coli Human ATCC 28922, 16 µg/mL (≈ 28.4 µM); in assay [1] it was 4 µg/mL (≈ 7.11 µM); in assay [2], 16 µg/mL (≈ 28.4 µM); in assay [3], 64 µg/mL (≈ 114 µM). Moreover, the IC50 with CHO-K1 cells (setting [4]) and in the assay on CHO-K1 cells (setting [5]) was 70 µg/mL (≈ 124 µM) each time.

As to `CC(C)NC(=O)CC[C@@H](C)[C@H]1CCC2C3C(CC[C@@]21C)[C@@]1(C)CC[C@H](NCCCNCCCNCCCN)CC1C[C@H]3O` (stereo partly drawn) [(7), 3β-norspermino-N-isopropylchenodeoxycholamide], the “MIC P. aeruginosa” value in the assay on P. aeruginosa (1051575) (chloramphenicol 4 μg/mL) came out at 2 µg/mL. The MIC with E. coli Animal (1956) was 8 µg/mL (≈ 13.2 µM); against E. coli Human ATCC 28922, 15 µg/mL (≈ 24.8 µM); in assay [1] it was 1 µg/mL (≈ 1.66 µM); in assay [2], 4 µg/mL (≈ 6.62 µM); in assay [3], 30 µg/mL (≈ 49.7 µM). Further, in the assay on CHO-K1 cells (setting [4]), the IC50 was 55 µg/mL (≈ 91.1 µM).

For `CC(C)NC(=O)CC[C@@H](C)[C@H]1CCC2C3C(CC[C@@]21C)[C@@]1(C)CC[C@H](NCCCNCCCN)CC1C[C@@H]3O` (stereo partly drawn) [(15), 3β-norspermidino-N-isopropylursodeoxycholamide], the “MIC P. aeruginosa” value with P. aeruginosa (1051575) (chloramphenicol 2 μg/mL) came to 7 µg/mL; with P. aeruginosa (1051575) (chloramphenicol 4 μg/mL) it was 2 µg/mL. The MIC against E. coli Animal (1956) was found to be 112 µg/mL (≈ 205 µM); with E. coli Human ATCC 28922, 56 µg/mL (≈ 102 µM); in assay [1], 7 µg/mL (≈ 12.8 µM); in assay [2], 112 µg/mL (≈ 205 µM); in assay [3], 56 µg/mL (≈ 102 µM). The IC50 stood at 140 µg/mL (≈ 256 µM) in the assay on CHO-K1 cells (setting [4]) and 85 µg/mL (≈ 155 µM) in the assay on CHO-K1 cells (setting [5]).

For the molecule `CC(C)NC(=O)CC[C@@H](C)[C@H]1CCC2C3CCC4C[C@@H](NCCCNCCCN)CC[C@]4(C)C3C[C@H](O)[C@@]21C` (stereo partly drawn) [Compound (2), 3β-norspermidino-N-isopropyldeoxycholamide], the “MIC P. aeruginosa” value in the assay on P. aeruginosa (1051575) (chloramphenicol 2 μg/mL) and in the assay with P. aeruginosa (1051575) (chloramphenicol 4 μg/mL) was 0.9 µg/mL in each case. For the same molecule, the minimal inhibitory concentration (MIC) amounted to 14 µg/mL (≈ 25.6 µM) in the assay with E. coli Animal (1956); 14 µg/mL (≈ 25.6 µM) with E. coli Human ATCC 28922; 1 µg/mL (≈ 1.83 µM) in assay [1]; 14 µg/mL (≈ 25.6 µM) in assay [2]; 28 µg/mL (≈ 51.2 µM) in assay [3]. Further, the IC50 in the assay with CHO-K1 cells (setting [4]) stood at 35 µg/mL (≈ 64 µM).

Consider `CC(C)NC(=O)CC[C@@H](C)[C@H]1CCC2C3C(CC[C@@]21C)[C@@]1(C)CC[C@H](NCCCN(C)CCCN)CC1C[C@H]3O` (stereo partly drawn) [(27), 3β-(bis(3-aminopropyl)methylamine)-N-isopropylchenodeoxycholamide], for which the “MIC P. aeruginosa” value came out at 4 µg/mL with P. aeruginosa (1051575) (chloramphenicol 2 μg/mL) and 1 µg/mL in the assay with P. aeruginosa (1051575) (chloramphenicol 4 μg/mL). The MIC against E. coli Animal (1956) turned out to be 32 µg/mL (≈ 57 µM); in the assay with E. coli Human ATCC 28922, 16 µg/mL (≈ 28.5 µM); in assay [1], 4 µg/mL (≈ 7.13 µM); in assay [2], 16 µg/mL (≈ 28.5 µM); in assay [3] it was 32 µg/mL (≈ 57 µM). Also, the IC50 in the assay on CHO-K1 cells (setting [4]) and in the assay on CHO-K1 cells (setting [5]) was 100 µg/mL (≈ 178 µM) throughout.

Take `CC(C)NC(=O)CC[C@@H](C)[C@H]1CCC2C3C(CC[C@@]21C)[C@@]1(C)CC[C@H](NCCCNCCCN)CC1C[C@H]3O` (stereo partly drawn) [(8), 3β-norspermidino-N-isopropylchenodeoxycholamide]: in the assay on P. aeruginosa (1051575) (chloramphenicol 4 μg/mL), the “MIC P. aeruginosa” value turned out to be 2 µg/mL. The MIC amounted to 14 µg/mL (≈ 25.6 µM) with E. coli Animal (1956); 14 µg/mL (≈ 25.6 µM) in the assay with E. coli Human ATCC 28922; 1 µg/mL (≈ 1.83 µM) in assay [1]; 8 µg/mL (≈ 14.6 µM) in assay [2]; 54 µg/mL (≈ 98.7 µM) in assay [3]. For the same molecule, the IC50 in the assay on CHO-K1 cells (setting [4]) and with CHO-K1 cells (setting [5]) was 50 µg/mL (≈ 91.4 µM) in each case.

Consider `CC(C)NC(=O)CC[C@@H](C)[C@H]1CCC2C3C(CC[C@@]21C)[C@@]1(C)CC[C@H](NCCCNCCCCNCCCN)CC1C[C@@H]3O` (stereo partly drawn) [Compound (35), 3β-spermino-N-isopropylursodeoxycholamide], for which, in the assay on P. aeruginosa (1051575) (chloramphenicol 4 μg/mL), the “MIC P. aeruginosa” value was determined as 2 µg/mL. The minimal inhibitory concentration (MIC) against E. coli Animal (1956) came to 64 µg/mL (≈ 104 µM); against E. coli Human ATCC 28922, 64 µg/mL (≈ 104 µM); in assay [1], 8 µg/mL (≈ 12.9 µM); in assay [2] it was 64 µg/mL (≈ 104 µM); in assay [3] it was 32 µg/mL (≈ 51.8 µM). Moreover, the IC50 in the assay with CHO-K1 cells (setting [4]) and in the assay with CHO-K1 cells (setting [5]) was 55 µg/mL (≈ 89 µM) in each case.

The values are drawn from US10780101B2, “Amide derivatives of squalamine for the treatment of infections” (VIRBAC, priority 2016, dated 2020).
